Experimental data: ChEMBL document CHEMBL1125905, “Synthesis, conformational properties, and antibody recognition of peptides containing beta-turn mimetics based on alpha-alkylproline derivatives” (J Med Chem, 1991)

Tests used:
[1] = Dissociation constant (Kd) for the equilibrium binding to the monoclonal antibodies DB19/1 which were raised in mice was determined; parameters: species or system Mus musculus
[2] = Dissociation constant (Kd) for the equilibrium binding to the monoclonal antibodies DB19/25 which were raised in mice was determined; parameters: species or system Mus musculus

Kd [1] [nM] | Kd [2] [nM] | SMILES
3.6 | 5.7 | CC(=O)N[C@@H](Cc1ccc(O)cc1)C(=O)N1CCC[C@@]1(C)C(=O)N[C@@H](Cc1ccc(O)cc1)C(=O)N[C@@H](CC(=O)O)C(=O)N[C@@H](C(=O)N1CCC[C@@H]1C(=O)N[C@H](CC(=O)O)C(=O)N[C@H](Cc1ccc(O)cc1)C(=O)N[C@H](C)C(=O)O)C(C)C
180 | 18 | CC(=O)N[C@@H](Cc1ccc(O)cc1)C(=O)N1CCC[C@H]1C(=O)N[C@@H](Cc1ccc(O)cc1)C(=O)N[C@@H](CC(=O)O)C(=O)N[C@@H](C(=O)N1CCC[C@@H]1C(=O)N[C@H](CC(=O)O)C(=O)N[C@H](Cc1ccc(O)cc1)C(=O)N[C@H](C)C(=O)O)C(C)C
88 | 38 | CC(=O)N[C@@H](Cc1ccc(O)cc1)C(=O)N1CCC[C@H]1C(=O)N[C@@H](Cc1ccc(O)cc1)C(=O)N[C@@H](CC(=O)O)C(=O)N[C@@H](C(=O)N(C)[C@@H](C)C(=O)N[C@H](CC(=O)O)C(=O)N[C@H](Cc1ccc(O)cc1)C(=O)N[C@H](C)C(=O)O)C(C)C
4200 | 600 | CC(=O)N[C@@H](Cc1ccc(O)cc1)C(=O)N(C)[C@@H](C)C(=O)N[C@@H](Cc1ccc(O)cc1)C(=O)N[C@@H](CC(=O)O)C(=O)N[C@@H](C(=O)N1CCC[C@@H]1C(=O)N[C@H](CC(=O)O)C(=O)N[C@H](Cc1ccc(O)cc1)C(=O)N[C@H](C)C(=O)O)C(C)C
